Test results reported in patent US6737383B1, “Herbicidal oxadiazolidines” (priority 1999, dated 2004).

Assays:
wheat = assay: Test B pre/postemergence wheat; assay type: in vivo, Triticum aestivum
Procedure, shortened: (§1)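 Test chemicals in a non-phytotoxic solvent mixture with surfactant were sprayed preemergence onto planted seeds and postemergence onto plants 2 to 18 cm tall (1- to 4-leaf stage). After twelve to sixteen days in a greenhouse, injury was visually rated against untreated controls from 0 (no effect) to 10 (complete control).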

pigweed = assay: Test B pre/postemergence pigweed; assay type: in vivo, Amaranthus retroflexus
Procedure, shortened: as §1

blackgrass = assay: Test B pre/postemergence blackgrass; assay type: in vivo, Alopecurus myosuroides
Procedure, shortened: as §1

velvetleaf = assay: Test B pre/postemergence velvetleaf; assay type: in vivo, Abutilon theophrasti
Procedure, shortened: as §1

sugar beet = assay: Test B pre/postemergence sugar beet; assay type: in vivo, Beta vulgaris
Procedure, shortened: as §1

rice = assay: Test B flood test rice; assay type: in vivo, Oryza sativa; settings: for Rice plant response rating: scale of 0 to 10 where 0 is no effect and 10 is complete control
Procedure, shortened: (§2)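 Plants were grown to the 2-leaf stage before treatment with test chemical, then held in a greenhouse for twelve to sixteen days. Injury was visually rated against untreated controls on a 0–10 scale, where 0 is no effect and 10 is complete control.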

giant foxtail = assay: Test B pre/postemergence giant foxtail; assay type: in vivo, Setaria faberii
Procedure, shortened: as §1

smallflower flatsedge = assay: Test B flood test smallflower flatsedge; assay type: in vivo, Cyperus difformis; settings: for S. Flatsedge plant response rating: scale of 0 to 10 where 0 is no effect and 10 is complete control
Procedure, shortened: as §2

wild oat = assay: Test B pre/postemergence wild oat; assay type: in vivo, Avena fatua
Procedure, shortened: as §1

duck salad = assay: Test B flood test duck salad; assay type: in vivo, Heteranthera limosa; settings: for Plant response rating, Ducksalad: scale 0 to 10, 0 is no effect, 10 is complete control; for Ducksalad plant response rating: scale of 0 to 10 where 0 is no effect and 10 is complete control
Procedure, shortened: as §2

crabgrass = assay: Test B pre/postemergence crabgrass; assay type: in vivo, Digitaria sanguinalis
Procedure, shortened: as §1

soybean = assay: Test B pre/postemergence soybean; assay type: in vivo, Glycine max
Procedure, shortened: as §1

corn = assay: Test B pre/postemergence corn; assay type: in vivo, Zea mays
Procedure, shortened: as §1

cocklebur = assay: Test B pre/postemergence cocklebur; assay type: in vivo, Xanthium strumarium
Procedure, shortened: as §1

surinam grass = assay: Test B pre/postemergence surinam grass; assay type: in vivo, Brachiaria decumbens
Procedure, shortened: as §1

rape = assay: Test B pre/postemergence rape; assay type: in vivo, Brassica napus
Procedure, shortened: as §1

[1] = Postemergence, Rate 500 g/ha, scale of 0 to 10 where 0 is no effect and 10 is complete control
[2] = Preemergence, Rate 62 g/ha, scale 0 to 10 (0 no effect, 10 complete control)
[3] = Preemergence, Rate 125 g/ha, scale of 0 to 10 where 0 is no effect and 10 is complete control
[4] = Preemergence, Rate 250 g/ha, scale 0 to 10, 0 is no effect, 10 is complete control
[5] = Preemergence, Rate 500 g/ha, scale 0 to 10, 0 is no effect, 10 is complete control
[6] = Rate 62 g/ha, Postemergence, scale of 0 to 10 where 0 is no effect and 10 is complete control
[7] = Postemergence, Rate 250 g/ha, scale 0 to 10, 0 is no effect, 10 is complete control
[8] = Postemergence, Rate 125 g/ha, scale 0 to 10, 0 is no effect, 10 is complete control
[9] = Preemergence, Rate 250 g/ha, scale of 0 to 10 where 0 is no effect and 10 is complete control
[10] = Postemergence section (flood test species), Rate 500 g/ha
[11] = Rate 62 g/ha, Postemergence (flood test species)
[12] = flood test species, listed under Postemergence, Rate 250 g/ha, scale 0 to 10, 0 is no effect, 10 is complete control

CC(=O)C(C)n1c(=O)on(C(=O)N(c2ccc(F)cc2)C(C)C)c1=O (centres unmarked) [Compound 400]
10: Giant foxtail plant response rating (giant foxtail; [4]) | Giant foxtail plant response rating (giant foxtail; [5]) | Crabgrass plant response rating (crabgrass; [4]) | Crabgrass plant response rating (crabgrass; [5])
6: Redroot pigweed plant response rating (pigweed; [4]) | Redroot pigweed plant response rating (pigweed; [5]) | Plant response rating, Crabgrass (crabgrass; [7]) | Plant response rating, Crabgrass (crabgrass; [2])
4: Plant response rating, Redroot pigweed (pigweed; [3]) | Plant response rating, Blackgrass (blackgrass; [8]) | Sugarbeets plant response rating (sugar beet; [5]) | Plant response rating, Soybean (soybean; [7]) | Soybean plant response rating (soybean; [1]) | B. signalgrass plant response rating (surinam grass; [1]) | B. signalgrass plant response rating (surinam grass; Preemergence, Rate 500 g/ha, scale of 0 to 10 where 0 is no effect and 10 is complete control)
3: Plant response rating, Redroot pigweed (pigweed; [2]) | Plant response rating, B. signalgrass (surinam grass; [7])
2: Velvetleaf plant response rating (velvetleaf; [5]) | Sugarbeets plant response rating (sugar beet; [4]) | Corn plant response rating (corn; [4]) | Corn plant response rating (corn; [5]) | Plant response rating, B. signalgrass (surinam grass; [8]) | B. signalgrass plant response rating (surinam grass; [9])
5: Giant foxtail plant response rating (giant foxtail; [6])
0: Wheat plant response rating (wheat; [1]) | Plant response rating, Wheat (wheat; [2]) | Plant response rating, Wheat (wheat; [3]) | Wheat plant response rating (wheat; [4]) | Wheat plant response rating (wheat; [5]) | Wheat plant response rating (wheat; [6]) | Plant response rating, Redroot pigweed (pigweed; [7]) | Redroot pigweed plant response rating (pigweed; [1]) | Redroot pigweed plant response rating (pigweed; [6]) | Plant response rating, Blackgrass (blackgrass; [2]) | Plant response rating, Blackgrass (blackgrass; [3]) | Blackgrass plant response rating (blackgrass; [9]) | Blackgrass plant response rating (blackgrass; [5]) | Blackgrass plant response rating (blackgrass; [6]) | Plant response rating, Velvetleaf (velvetleaf; [7]) | Velvetleaf plant response rating (velvetleaf; [1]) | Plant response rating, Velvetleaf (velvetleaf; [2]) | Plant response rating, Velvetleaf (velvetleaf; [3]) | Velvetleaf plant response rating (velvetleaf; [4]) | Velvetleaf plant response rating (velvetleaf; [6]) | Plant response rating, Sugarbeets (sugar beet; [7]) | Sugarbeets plant response rating (sugar beet; [1]) | Plant response rating, Sugarbeets (sugar beet; [2]) | Plant response rating, Sugarbeets (sugar beet; [3]) | Sugarbeets plant response rating (sugar beet; [6]) | Rice plant response rating (rice; [10]) | Rice plant response rating (rice; [11]) | Plant response rating, Rice (rice; [12]) | S. Flatsedge plant response rating (smallflower flatsedge; [10]) | S. Flatsedge plant response rating (smallflower flatsedge; [11]) | Plant response rating, S. Flatsedge (smallflower flatsedge; [12]) | Wild oats plant response rating (wild oat; [1]) | Plant response rating, Wild oats (wild oat; [2]) | Plant response rating, Wild oats (wild oat; [3]) | Wild oats plant response rating (wild oat; [4]) | Wild oats plant response rating (wild oat; [5]) | Wild oats plant response rating (wild oat; [6]) | Plant response rating, Ducksalad (duck salad; Postemergence (flood test), Rate 125 g/ha) | Ducksalad plant response rating (duck salad; [10]) | Ducksalad plant response rating (duck salad; [11]) | Plant response rating, Ducksalad (duck salad; flood test species, listed under Postemergence, Rate 250 g/ha) | Crabgrass plant response rating (crabgrass; [6]) | Plant response rating, Soybean (soybean; [2]) | Plant response rating, Soybean (soybean; [3]) | Soybean plant response rating (soybean; [4]) | Soybean plant response rating (soybean; [5]) | Plant response rating, Corn (corn; [8]) | Plant response rating, Corn (corn; [7]) | Corn plant response rating (corn; [1]) | Plant response rating, Corn (corn; [2]) | Plant response rating, Corn (corn; [3]) | Corn plant response rating (corn; [6]) | Plant response rating, Cocklebur (cocklebur; [8]) | Plant response rating, Cocklebur (cocklebur; [7]) | Cocklebur plant response rating (cocklebur; [1]) | Plant response rating, Cocklebur (cocklebur; [2]) | Plant response rating, Cocklebur (cocklebur; [3]) | Cocklebur plant response rating (cocklebur; [4]) | Cocklebur plant response rating (cocklebur; [5]) | Cocklebur plant response rating (cocklebur; [6]) | Plant response rating, B. signalgrass (surinam grass; [2]) | Plant response rating, B. signalgrass (surinam grass; [3]) | B. signalgrass plant response rating (surinam grass; [6]) | Plant response rating, Rape (rape; [7]) | Rape plant response rating (rape; [1]) | Plant response rating, Rape (rape; [2]) | Plant response rating, Rape (rape; [3]) | Rape plant response rating (rape; [4]) | Rape plant response rating (rape; [5]) | Rape plant response rating (rape; [6])
1: Soybean plant response rating (soybean; [6])
8: Plant response rating, Blackgrass (blackgrass; [7]) | Blackgrass plant response rating (blackgrass; [1]) | Plant response rating, Giant foxtail (giant foxtail; [8])
9: Plant response rating, Giant foxtail (giant foxtail; [7]) | Giant foxtail plant response rating (giant foxtail; [1]) | Plant response rating, Giant foxtail (giant foxtail; [2]) | Plant response rating, Giant foxtail (giant foxtail; [3]) | Crabgrass plant response rating (crabgrass; [1]) | Plant response rating, Crabgrass (crabgrass; [3])
